# Data as given in publication PMC11699025 (Natural Products and Bioprospecting, 2025).
# Values joined by “and” are separate entries in the source; they are usually repeats but may differ in a detail not shown here. Equal values may be shown once.
# Assays:
# MERS-CoV PLpro [1] = target: T1, MERS-CoV PLpro (Middle East respiratory syndrome-related coronavirus, UniProt K9N7C7); format: binding
# SARS-CoV PLpro [2] = target: T2, SARS-CoV PLpro (Severe acute respiratory syndrome coronavirus, UniProt P0C6X7); experiment: biochemical; format: binding
# SARS-CoV PLpro [3] = target: T2, SARS-CoV PLpro; experiment: biochemical
# BtCoV Rp3 PLpro [4] = target: T3, BtCoV Rp3 PLpro (Bat coronavirus Rp3/2004, UniProt P0C6W6); format: binding
# HCoV-OC43 = experiment: microbe, parasite or virus in culture; format: cell-based, human coronavirus OC43; conditions: for EC50: Betacoronavirus 1, OC43, RD, 48 h
# in vitro = conditions: human
# SARS-CoV Mpro [5] = target: T4, SARS-CoV Mpro (Severe acute respiratory syndrome coronavirus, UniProt P0C6X7); format: binding
# BtCoV Rp3 PLpro [6] = target: T3, BtCoV Rp3 PLpro; experiment: biochemical; format: binding
# RD cells = conditions: concentrations up to 100 µM
# SARS-CoV Mpro [7] = target: T4, SARS-CoV Mpro; experiment: biochemical; format: binding
# MERS-CoV Mpro [8] = target: T5, MERS-CoV Mpro (Middle East respiratory syndrome-related coronavirus, UniProt K9N7C7); experiment: biochemical; format: binding
# MERS-CoV Mpro [9] = target: T5, MERS-CoV Mpro; format: binding
# MERS-CoV PLpro [10] = target: T1, MERS-CoV PLpro; experiment: biochemical; format: binding
# BtCoV Rp3 Mpro [11] = target: T6, BtCoV Rp3 Mpro (Bat coronavirus Rp3/2004, UniProt P0C6W6); experiment: biochemical; format: binding
# BtCoV Rp3 Mpro [12] = target: T6, BtCoV Rp3 Mpro; experiment: biochemical
# SARS-CoV-2 PLpro WT = SARS-CoV-2 PLpro WT (Severe acute respiratory syndrome coronavirus 2, UniProt P0DTD1); format: binding
# SARS-CoV-2 Mpro [13] = target: T7, SARS-CoV-2 Mpro (Severe acute respiratory syndrome coronavirus 2, UniProt P0DTD1); experiment: biochemical; format: binding; conditions: pH 7.4, read-out: ka
# SARS-CoV-2 PLpro [14] = target: T8, SARS-CoV-2 PLpro (Severe acute respiratory syndrome coronavirus 2, UniProt P0DTD1); experiment: biochemical
# SARS-CoV-2 Mpro [15] = target: T7, SARS-CoV-2 Mpro; experiment: biochemical
# SARS-CoV-2 PLpro [16] = target: T8, SARS-CoV-2 PLpro; experiment: biochemical; format: binding; conditions: pH 7.4, read-out: ka
# T5 sequence (K9N7C7 3248-3553 limits assumed): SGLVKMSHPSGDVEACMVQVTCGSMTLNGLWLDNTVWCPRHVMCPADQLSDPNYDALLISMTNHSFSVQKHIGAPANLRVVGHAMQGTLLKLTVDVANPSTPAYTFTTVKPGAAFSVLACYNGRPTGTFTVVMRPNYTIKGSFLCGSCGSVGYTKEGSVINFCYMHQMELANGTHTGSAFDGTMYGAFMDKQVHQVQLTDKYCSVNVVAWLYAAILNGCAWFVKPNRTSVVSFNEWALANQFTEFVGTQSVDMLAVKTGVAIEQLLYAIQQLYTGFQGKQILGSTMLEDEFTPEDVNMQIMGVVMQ
# T1 sequence (K9N7C7 1552-1823 limits assumed): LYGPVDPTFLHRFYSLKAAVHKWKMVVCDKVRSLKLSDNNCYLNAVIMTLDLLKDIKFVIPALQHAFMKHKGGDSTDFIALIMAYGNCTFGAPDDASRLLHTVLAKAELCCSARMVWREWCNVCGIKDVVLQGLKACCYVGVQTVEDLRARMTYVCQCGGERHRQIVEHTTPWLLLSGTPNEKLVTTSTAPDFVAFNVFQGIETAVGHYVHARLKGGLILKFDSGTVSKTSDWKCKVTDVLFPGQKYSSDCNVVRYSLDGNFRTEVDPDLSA
smiles,measurement,setting,value
"Cc1cc(O)c(O)c(Oc2cc(C)cc(O)c2Oc2cc(C)cc(O)c2O)c1 [Sydowiol B, sydowiol B]",Tm value,MERS-CoV PLpro [1],57.67 ± 0.32 (2.78) ℃ and 57.20 ± 0.13 (2.31) ℃ and 56.95 ± 0.13 (2.06) ℃
same,Kd,SARS-CoV PLpro [2],14200 nM
same,IC50,SARS-CoV PLpro [3],2420 ± 1100 nM
same,Tm value,BtCoV Rp3 PLpro [4],53.59 ± 0.20 (4.00) ℃ and 53.87 ± 0.13 (4.28) ℃ and 52.79 ± 0.27 (3.20) ℃
same,△Tm,BtCoV Rp3 PLpro [4],53.59 ± 0.20 (4.00) ℃ and 53.87 ± 0.13 (4.28) ℃ and 52.79 ± 0.27 (3.20) ℃
same,EC50,HCoV-OC43,690 ± 100 nM
same,CC50 at 48 h,in vitro,> 200000 nM
same,Tm value,SARS-CoV Mpro [5],57.17 ± 0.19 (1.25) ℃ and 56.82 ± 0.25 (0.90) ℃ and 56.37 ± 0.28 (0.45) ℃
same,Kd,BtCoV Rp3 PLpro [6],11800 nM
same,influence on cell viability,RD cells,no influence
same,Kd,SARS-CoV Mpro [7],2540 nM
same,Kd,MERS-CoV Mpro [8],9350 nM
same,Tm value,MERS-CoV Mpro [9],47.47 ± 0.33 (1.37) ℃ and 47.33 ± 0.00 (1.23) ℃ and 47.27 ± 0.16 (1.17) ℃
same,Kd,MERS-CoV PLpro [10],450 nM
same,Kd,BtCoV Rp3 Mpro [11],1930 nM
same,IC50,BtCoV Rp3 Mpro [12],1160 ± 1230 nM
same,Tm value,SARS-CoV-2 PLpro WT,51.24 ± 0.36 (5.29) ℃ and 50.31 ± 0.06 (4.36) ℃
"Cc1cc(O)c(O)c(Oc2cc(C)cc(O)c2O)c1 [Violaceol I, violaceol I]",kon,"SARS-CoV PLpro [2]; pH 7.4, read-out: ka",516 M⁻¹ s⁻¹
same,kon,SARS-CoV-2 Mpro [13],969 M⁻¹ s⁻¹
same,Selection Index (SI),HCoV-OC43,>42.02
same,EC50,HCoV-OC43,2380 ± 20 nM
same,CC50 at 48 h,in vitro,> 100000 nM
same,kon,"BtCoV Rp3 PLpro [6]; pH 7.4, read-out: ka",551 M⁻¹ s⁻¹
same,influence on cell viability,RD cells,no influence
same,kon,"SARS-CoV Mpro [7]; pH 7.4, read-out: ka",547 M⁻¹ s⁻¹
same,IC50,SARS-CoV-2 PLpro [14],42300 ± 1020 nM
same,kon,"MERS-CoV Mpro [8]; pH 7.4, read-out: ka",454 M⁻¹ s⁻¹
same,kon,"MERS-CoV PLpro [10]; pH 7.4, read-out: ka",479 M⁻¹ s⁻¹
same,kon,"BtCoV Rp3 Mpro [11]; pH 7.4, read-out: ka",532 M⁻¹ s⁻¹
same,IC50,SARS-CoV-2 Mpro [15],8270 ± 1150 nM
same,kon,SARS-CoV-2 PLpro [16],494 M⁻¹ s⁻¹
